US20220389359A1, “USE OF PERFLUORO-N-OCTANE FOR PIEZO-MEDIATED INTRACYTOPLASMIC SPERM INJECTION” (priority 2019, published 2022)
“Also recorded” adds a separate entry of the source.

Columns and labels:
[1] = tested on: 2PN (two pronuclei) mouse embryos; assay: Mouse embryo development after incubation in fluorinated compounds; format: cell-based; conditions: for # embryos showing degeneration / Mean T2 to T3 (mean time from 2-cell stage to 3-cell stage) / Pace of embryo development compared to untreated control embryos / Mean T2 (mean time taken to reach the 2-cell stage): incubated 3 minutes in compound; for # embryos showing degeneration / Pace of embryo development compared to untreated control embryos: cultured 5 days; for Mean T2 (mean time taken to reach the 2-cell stage): embryos that reached 2-cell stage; for # 2-cell stage / # 3-cell stage / # expanded blastocyst / # hatching/hatched blastocyst: number of embryos; for # 2-cell stage / # 3-cell stage / # expanded blastocyst / # hatching/hatched blastocyst / # 2-cell stage (%) / # 3-cell stage (%) / # expanded blastocyst (%) / # hatching/hatched blastocyst (%): incubated 3 minutes, within 5-day incubation; for # 2-cell stage (%) / # 3-cell stage (%) / # expanded blastocyst (%) / # hatching/hatched blastocyst (%): proportion of 2PN embryos
Method: The effects of incubation in different fluorinated compounds on embryo development were tested.
223 2PN (two pronuclei) mouse embryos were randomly divided into four groups: A) raw perfluoro-n-octane; B) a commercially available perfluorohydrocarbon mixture previously used as operating liquid for Piezo-ICSI; C) purified perfluoro-n-octane; and D) untreated control.
Embryos in groups A, B and C were incubated for 3 minutes in the respective compound then transferred to culture medium. Embryos in all groups were then cultured for 5 days in an incubator (37.5° C., relative 100% humidity, 5% CO2 in air).
The number of embryos in each group showing signs of degeneration was counted.
The number of embryos in each group reaching the 2-cell, 3-cell, expanded blastocyst and hatching/hatched blastocyst stages of development within the 5-day incubation was counted.
The mean time taken to reach the 2-cell stage (T2) by those embryos that did, and the mean time taken for those embryos to develop from the 2-cell stage to the 3-cell stage (T3) were measured.

[2] = 25° C.; cited from earlier work
[3] = tested on: oocytes; assay: Assisted reproduction using Piezo-ICSI with purified perfluoro-n-octane operating liquid compared to c-ICSI; format: in vivo, human; conditions: Piezo-ICSI with purified perfluoro-n-octane as operating liquid
Description: The efficacy of assisted reproduction using c-ICSI was compared to using Piezo-ICSI was compared. Purified perfluoro-n-octane was used as operating liquid for Piezo-ICSI.
In particular, 69 patients having at least 6 mature oocytes were randomly divided into two groups. The first group underwent assisted reproduction in which sperm was introduced into oocytes using c-ICSI. The second group underwent assisted reproduction in which sperm was introduced into oocytes using Piezo-ICSI.
c-ICSI was performed using Eppendorf 2K control with ICSI micropipettes (TPC, Cooper Surgical). Piezo-ICSI was performed using PMM and Piezo micropipettes (Primetech). Purified perfluoro-n-octane was used as operating liquid in Piezo-ICSI.

Structure (SMILES)	# embryos showing degeneration [1]	Surface tension [2] [mN/m]	Vapour pressure [2] [mbar]	Mean T2 to T3 (mean time from 2-cell stage to 3-cell stage) [1] [min]	Pace of embryo development compared to untreated control embryos [1]	Mean T2 (mean time taken to reach the 2-cell stage) [1] [min]	# 2-cell stage [1]	# 3-cell stage [1]	# expanded blastocyst [1]	# hatching/hatched blastocyst [1]	# 2-cell stage (%) [1]	# 3-cell stage (%) [1]	# expanded blastocyst (%) [1] [%]	# hatching/hatched blastocyst (%) [1] [%]	Additional embryos for vitrification on average compared to c-ICSI [3]	Average number of embryos for vitrification ([3]; c-ICSI 2.7)	Oocyte degeneration rate ([3]; c-ICSI 10.2%) [%]	Utilisation rate ([3]; c-ICSI 45.6%) [%]	Clinical pregnancy rate ([3]; c-ICSI 50%) [%]	Fertilization rate (oocytes successfully fertilised) ([3]; c-ICSI 65.9%, p<0.05) [%]
FC(F)(F)C(F)(F)C(F)(F)C(F)(F)C(F)(F)C(F)(F)C(F)(F)C(F)(F)F [perfluoro-n-octane, 1,1,1,2,2,3,3,4,4,5,5,6,6,7,7,8,8,8-octadecafluorooctane]	none	16	3.4	–	–	–	–	–	–	–	–	–	–	–	–	–	–	–	–	–
FC(F)(F)C(F)(F)C(F)(F)C(F)(F)C(F)(F)C(F)(F)C(F)(F)C(F)(F)F [purified perfluoro-n-octane, perfluoro-n-octane]	0	–	–	1293	developed at a pace comparable to untreated control embryos; also recorded: does not negatively affect embryo development	1304	51	48	45	33	(93%)	(87%)	82	60	1	3.8	3.8	47.3	55	80.6
FC(F)(F)C(F)(F)C(F)(F)C(F)(F)C(F)(F)C(F)(F)C(F)(F)C(F)(F)F [raw perfluoro-n-octane, perfluoro-n-octane]	0	–	–	1518	developed more slowly than control embryos	1394	52	45	36	9	(95%)	(82%)	65	16	–	–	–	–	–	–
